In patent publication US9908912B2, “Triclosan derivatives and uses thereof” (priority 2012, dated 2018):

How the values were obtained:
[1] = tested on: Aeromonas hydrophila OCC 778; assay: MIC in Nutrient Broth No. 2; format: cell-based; details: Nutrient Broth No. 2
Procedure: (§1) Bacteria species as indicated in Table 1 were incubated for approximately 24 hours at 37° C.
(§2) The tests were repeated with the addition of inducers. Methyl glycoside was the main inducer used, but other suitable inducers include isopropyl-β-D-thiogalactopyranoside, p-nitrophenyl-α-L-arabinopyranoside and p-nitrophenyl-β-D-xylopyranoside. Concentration of inducer in all cases was 100 μg/ml.

[2] = tested on: Serratia marcescens OCC 217; assay: MIC in Nutrient Broth No. 2; format: cell-based; details: Nutrient Broth No. 2
Procedure: as §1, §2

[3] = tested on: Salmonella; assay: MIC in Nutrient Broth No. 2; format: cell-based; details: 11 strains, Nutrient Broth No. 2
Procedure: as §1, §2

[4] = tested on: Bacillus subtilis NCTC 10073; assay: MIC in Nutrient Broth No. 2; format: cell-based; details: Nutrient Broth No. 2
Procedure: as §1, §2

[5] = tested on: Proteus vulgaris OCC 195; assay: MIC in Nutrient Broth No. 2; format: cell-based; details: Nutrient Broth No. 2
Procedure: as §1, §2

[6] = tested on: Proteus mirabilis ATCC 12453; assay: MIC in Nutrient Broth No. 2; format: cell-based; details: Nutrient Broth No. 2
Procedure: as §1, §2

[7] = tested on: Enterobacter aerogenes ATCC 13048; assay: MIC in Nutrient Broth No. 2; format: cell-based; details: Nutrient Broth No. 2
Procedure: as §1, §2

[8] = tested on: Ps. Aeruginosa ATCC 27853; assay: MIC in Nutrient Broth No. 2; format: cell-based; details: Nutrient Broth No. 2
Procedure: as §1, §2

[9] = tested on: Enterococcus faecalis ATCC 29212; assay: MIC in Nutrient Broth No. 2; format: cell-based; details: Nutrient Broth No. 2
Procedure: as §1, §2

[10] = tested on: Bacillus cereus ATCC 14579; assay: MIC in Nutrient Broth No. 2; format: cell-based; details: Nutrient Broth No. 2
Procedure: as §1, §2

[11] = tested on: Hafnia alvei ATCC 13337; assay: MIC in Nutrient Broth No. 2; format: cell-based; details: Nutrient Broth No. 2
Procedure: as §1, §2

[12] = tested on: Escherichia coli; assay: MIC in Nutrient Broth No. 2; format: cell-based; details: 8 strains, Nutrient Broth No. 2
Procedure: as §1, §2

[13] = tested on: Citrobacter freundii OCC 851; assay: MIC in Nutrient Broth No. 2; format: cell-based; details: Nutrient Broth No. 2
Procedure: as §1, §2

[14] = tested on: Strep. pyogenes ATCC 19615; assay: MIC in Nutrient Broth No. 2; format: cell-based, Streptococcus pyogenes; details: Nutrient Broth No. 2
Procedure: as §1, §2

[15] = tested on: Str. agalactiae; assay: MIC in Nutrient Agar; format: cell-based, Streptococcus agalactiae; details: Nutrient Agar containing 0.1 μg/ml of inducer; 37° C., 24 hours
Procedure: (§3) The triclosan-glycosides were added to Nutrient Agar (Oxoid CM0003; Thermofisher Scientific) and organisms were transferred onto the plates surface using a multi-point inoculation device (Oxoid Cathra, Thermofisher Scientific). The latter is essentially a metal plate containing a number of needles. Each needle tip (usually 36 per plate) dips into an organism suspension (in phosphate buffered saline; PBS) and the needles are then moved over the agar plate and lowered onto its surface. In this way the growth of colonies of up to 36 different organisms can be observed on one plate.
(§4) Nutrient Agar No. 2 was prepared according to the manufacturers instructions, autoclaved and cooled to 50° C. Test compounds were then added as filter sterilised solutions (50:50 deionised water:ethanol), to give final concentrations from 256 μg/ml to 0 μg/ml in doubling dilutions. […] The mixtures were swirled then four plates (25 ml molten agar) were poured for each concentration. Plates were dried in a laminar flow cabinet then inoculated with overnight cultures of organisms that had been decimally diluted twice in sterile saline solution (approximately 10^7 cfu/ml) using a multi-point inoculator. Plates were then incubated at 37° C. for 24 hours. MICs were determined as the concentration at which no growth was observed.

[16] = tested on: Ser. marcescens; assay: MIC in Nutrient Agar; format: cell-based, Serratia marcescens; details: Nutrient Agar containing 0.1 μg/ml of inducer; 37° C., 24 hours
Procedure: as §3, §4

[17] = tested on: C. freundii; assay: MIC in Nutrient Agar; format: cell-based, Citrobacter freundii; details: Nutrient Agar containing 0.1 μg/ml of inducer; 37° C., 24 hours
Procedure: as §3, §4

[18] = tested on: Ps. aeruginosa; assay: MIC in Nutrient Agar; format: cell-based; details: Nutrient Agar containing 0.1 μg/ml of inducer; 37° C., 24 hours
Procedure: as §3, §4

[19] = tested on: Bacillus subtilis; assay: MIC in Nutrient Agar; format: cell-based; details: Nutrient Agar containing 0.1 μg/ml of inducer; 37° C., 24 hours
Procedure: as §3, §4

[20] = tested on: Hafnia alvei; assay: MIC in Nutrient Agar; format: cell-based; details: Nutrient Agar containing 0.1 μg/ml of inducer; 37° C., 24 hours
Procedure: as §3, §4

[21] = tested on: Bacillus cereus; assay: MIC in Nutrient Agar; format: cell-based; details: Nutrient Agar containing 0.1 μg/ml of inducer; 37° C., 24 hours
Procedure: as §3, §4

[22] = tested on: E. hermanii ATCC 33650; assay: MIC in Nutrient Broth No. 2; format: cell-based, Escherichia hermanii; details: Nutrient Broth No. 2
Procedure: as §1, §2

[23] = tested on: Kleb. aerogenes; assay: MIC in Nutrient Agar; format: cell-based, Klebsiella aerogenes; details: Nutrient Agar containing 0.1 μg/ml of inducer; 37° C., 24 hours
Procedure: as §3, §4

[24] = tested on: Staph. aureus; assay: MIC in Nutrient Broth No. 2; format: cell-based, Staphylococcus aureus; details: 8 strains, Nutrient Broth No. 2
Procedure: as §1, §2

[25] = tested on: Kleb. aerogenes NCTC 88167; assay: MIC in Nutrient Broth No. 2; format: cell-based, Klebsiella aerogenes; details: Nutrient Broth No. 2
Procedure: as §1, §2

[26] = tested on: Staph. haemolyticus OCC 2223; assay: MIC in Nutrient Broth No. 2; format: cell-based, Staphylococcus haemolyticus; details: Nutrient Broth No. 2
Procedure: as §1, §2

[27] = tested on: S. haemolyticus; assay: MIC in Nutrient Agar; format: cell-based, Staphylococcus haemolyticus; details: Nutrient Agar containing 0.1 μg/ml of inducer; 37° C., 24 hours
Procedure: as §3, §4

[28] = tested on: Strep. agalactiae OCC 182; assay: MIC in Nutrient Broth No. 2; format: cell-based, Streptococcus agalactiae; details: Nutrient Broth No. 2
Procedure: as §1, §2

[29] = tested on: S. saprophyticus; assay: MIC in Nutrient Agar; format: cell-based, Staphylococcus saprophyticus; details: Nutrient Agar containing 0.1 μg/ml of inducer; 37° C., 24 hours
Procedure: as §3, §4

[30] = tested on: Str. pyogenes; assay: MIC in Nutrient Agar; format: cell-based, Streptococcus pyogenes; details: Nutrient Agar containing 0.1 μg/ml of inducer; 37° C., 24 hours
Procedure: as §3, §4

[31] = tested on: Str. viridans; assay: MIC in Nutrient Agar; format: cell-based, Streptococcus viridans; details: Nutrient Agar containing 0.1 μg/ml of inducer; 37° C., 24 hours
Procedure: as §3, §4

[32] = tested on: Ent. cloacae ATCC 13047; assay: MIC in Nutrient Broth No. 2; format: cell-based, Enterobacter cloacae; details: Nutrient Broth No. 2
Procedure: as §1, §2

Measured: MIC

OC[C@H]1O[C@H](Oc2cc(Cl)ccc2Oc2ccc(Cl)cc2Cl)[C@H](O)[C@@H](O)[C@H]1O [α-D-Galactoside, triclosan-α-D-galactopyranoside]
32 to 64 µg/mL: [3]; without inducer
32 to 128 µg/mL: [3]; with inducer 100 μg/ml
16 to 64 µg/mL: [12]; without inducer
128 µg/mL: [7]; without inducer | [13]; with inducer 100 μg/ml | [19]
32 µg/mL: [6]; with inducer 100 μg/ml | [6]; without inducer | [22]; with inducer 100 μg/ml | [22]; without inducer | [23] | [25]; without inducer | [26]; with inducer 100 μg/ml | [29] | [32]; without inducer
8 to 16 µg/mL: [24]; with inducer 100 μg/ml | [24]; without inducer
8 to 64 µg/mL: [12]; with inducer 100 μg/ml
8 µg/mL: [11]; with inducer 100 μg/ml | [27]
256 µg/mL: [4]; without inducer | [14]; with inducer 100 μg/ml | [14]; without inducer
>256 µg/mL: [1]; with inducer 100 μg/ml | [1]; without inducer | [2]; with inducer 100 μg/ml | [2]; without inducer | [4]; with inducer 100 μg/ml | [8]; with inducer 100 μg/ml | [8]; without inducer | [9]; with inducer 100 μg/ml | [9]; without inducer | [10]; with inducer 100 μg/ml | [10]; without inducer | [15] | [16] | [18] | [21] | [28]; with inducer 100 μg/ml | [28]; without inducer | [30] | [31]
64 µg/mL: [5]; with inducer 100 μg/ml | [5]; without inducer | [7]; with inducer 100 μg/ml | [13]; without inducer | [17] | [25]; with inducer 100 μg/ml
16 µg/mL: [11]; without inducer | [26]; without inducer | [32]; with inducer 100 μg/ml
4 µg/mL: [20]
